According to patent US12077503B2, “Substituted cyclic amides and their use as herbicides” (FMC CORPORATION, priority 2015, dated 2024):

Columns and labels:
Assay type in all cases: in vivo
[1] = tested on: ragweed (common ragweed, Ambrosia elatior); experiment: Test A preemergence; details: for Ragweed plant response rating (0 to 100 scale, 0 is no effect, 100 is complete control): visual injury approx. 10 d
Method in brief: (§1)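 Treatment is preemergence as a directed soil spray after planting, or postemergence at the one- to two-leaf stage, with test chemical in a non-phytotoxic solvent mixture plus surfactant. Plants stay in the greenhouse about 10 d before visual injury scoring on a 0 to 100 scale versus untreated controls.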

[2] = tested on: pigweed (Amaranthus retroflexus); experiment: Test A preemergence; details: for Pigweed plant response rating (0 to 100 scale, 0 is no effect, 100 is complete control): visual injury approx. 10 d
[3] = tested on: barnyardgrass (Echinochloa crus-galli); experiment: Test A preemergence; details: for Barnyardgrass plant response rating (0 to 100 scale, 0 is no effect, 100 is complete control): visual injury approx. 10 d
Method in brief: as §1

[4] = tested on: giant foxtail (Setaria faberii); experiment: Test A preemergence; details: for Foxtail, Giant plant response rating (0 to 100 scale, 0 is no effect, 100 is complete control): visual injury approx. 10 d
Method in brief: as §1

[5] = tested on: ryegrass, Italian (Italian ryegrass, Lolium multiflorum); experiment: Test A preemergence; details: for Ryegrass, Italian plant response rating (0 to 100 scale, 0 is no effect, 100 is complete control): visual injury approx. 10 d
Method in brief: as §1

Kochia (Kochia scoparia) [6] = experiment: Test A preemergence; details: for Kochia plant response rating (0 to 100 scale, 0 is no effect, 100 is complete control): visual injury approx. 10 d
Method in brief: as §1

[7] = tested on: Galium (catchweed bedstraw, Galium aparine); experiment: Test A postemergence
Method in brief: as §1

[8] = tested on: wheat (Triticum aestivum); experiment: Test A postemergence
Method in brief: as §1

[9] = tested on: ragweed (common ragweed, Ambrosia elatior); experiment: Test A postemergence
Method in brief: as §1

corn (Zea mays) = experiment: Test A postemergence
Method in brief: as §1

[10] = tested on: pigweed (Amaranthus retroflexus); experiment: Test A postemergence
Method in brief: as §1

[11] = tested on: blackgrass (Alopecurus myosuroides); experiment: Test A postemergence; details: for Blackgrass plant response rating: visual injury rating on 0 to 100 scale (0 no effect, 100 complete control)
Method in brief: as §1

[12] = tested on: barnyardgrass (Echinochloa crus-galli); experiment: Test A postemergence; details: for Barnyardgrass plant response rating: visual injury rating on 0 to 100 scale (0 no effect, 100 complete control)
Method in brief: as §1

[13] = tested on: giant foxtail (Setaria faberii); experiment: Test A postemergence
Method in brief: as §1

[14] = tested on: ryegrass, Italian (Italian ryegrass, Lolium multiflorum); experiment: Test A postemergence
Method in brief: as §1

Kochia (Kochia scoparia) [15] = experiment: Test A postemergence
Method in brief: as §1

[16] = tested on: barnyardgrass (Echinochloa crus-galli); experiment: Test B flooded paddy test; details: Flood, 0 to 100 scale where 0 is no effect and 100 is complete control, 13 to 15 d
Method in brief: (§2)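 Compound goes directly into floodwater once pots are flooded 3 cm above soil, targeting plants at two leaves; the water depth is then held for the test duration. Plants sit 13–15 d in a greenhouse and are rated visually, 100 denoting complete control.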

rice (Oryra sativa) = experiment: Test B flooded paddy test; details: Flood, 0 to 100 scale where 0 is no effect and 100 is complete control, 13 to 15 d
Method in brief: as §2

[17] = tested on: ducksalad (Heteranthera limosa); experiment: Test B flooded paddy test; details: Flood, 0 to 100 scale where 0 is no effect and 100 is complete control, 13 to 15 d
Method in brief: as §2

[18] = tested on: sedge, umbrella (small-flower umbrella sedge, Cyperus difformis); experiment: Test B flooded paddy test; details: Flood, 0 to 100 scale where 0 is no effect and 100 is complete control, 13 to 15 d
Method in brief: as §2

[19] = 125 g ai/ha, Preemergence, visual injury after approximately 10 d, 0 to 100 scale where 0 is no effect and 100 is complete control
[20] = 500 g ai/ha, preemergence, 0 to 100 scale, 0 = no effect, 100 = complete control
[21] = 125 g ai/ha, postemergence, visual rating after approx. 10 d, 0 to 100 scale (0 no effect, 100 complete control)
[22] = 500 g ai/ha, postemergence, visual injury, 0 to 100 scale (0 no effect, 100 complete control), approx. 10 d
[23] = Postemergence, 500 g ai/ha, 0 to 100 scale where 0 is no effect and 100 is complete control
[24] = 125 g ai/ha, postemergence, approx. 10 d
[25] = 125 g ai/ha, postemergence, visual injury rating on 0 to 100 scale (0 no effect, 100 complete control), approx. 10 d

Compound: CN1CC(c2cc(F)cc(F)c2)C(C(=O)Nc2ccccc2C(F)(F)F)C1=O (stereo not drawn) [Compound 647]
- Plant response rating, Ragweed [1, 19]: 0
- Plant response rating, Ragweed [1, 20]: 40
- Plant response rating, Pigweed [2, 19]: 0
- Plant response rating, Pigweed [2, 20]: 60
- Plant response rating, Barnyardgrass [3, 19]: 90
- Plant response rating, Barnyardgrass [3, 20]: 90
- Plant response rating, Foxtail, Giant [4, 19]: 90
- Plant response rating, Foxtail, Giant [4, 20]: 100
- Plant response rating, Ryegrass, Italian [5, 19]: 30
- Plant response rating, Ryegrass, Italian [5, 20]: 30
- Plant response rating, Kochia (Kochia (Kochia scoparia) [6]; [19]): 0
- Plant response rating, Kochia (Kochia (Kochia scoparia) [6]; [20]): 0
- Plant response rating, Galium [7, 21]: 20
- Plant response rating, Galium [7, 22]: 50
- Plant response rating, Wheat [8, 21]: 20
- Plant response rating, Wheat [8, 22]: 50
- Plant response rating, Ragweed [9, 21]: 0
- Plant response rating, Ragweed [9, 22]: 10
- Plant response rating, Corn (corn (Zea mays); [21]): 10
- Plant response rating, Corn (corn (Zea mays); [22]): 40
- Plant response rating, Pigweed [10, 21]: 0
- Plant response rating, Pigweed [10, 22]: 0
- Plant response rating, Blackgrass [11, 21]: 20
- Plant response rating, Blackgrass [11, 22]: 60
- Plant response rating, Barnyardgrass [12, 21]: 80
- Plant response rating, Barnyardgrass [12, 22]: 90
- Plant response rating, Foxtail, Giant [13, 21]: 90
- Plant response rating, Foxtail, Giant [13, 22]: 90
- Plant response rating, Ryegrass, Italian [14, 21]: 0
- Plant response rating, Ryegrass, Italian [14, 22]: 0
- Plant response rating, Kochia (Kochia (Kochia scoparia) [15]; [21]): 0
- Plant response rating, Kochia (Kochia (Kochia scoparia) [15]; [22]): 20
- Plant response rating, Barnyardgrass ([16]; 250 g ai/ha): 75
- Plant response rating, Rice (rice (Oryra sativa); 250 g ai/ha): 40
- Plant response rating, Ducksalad ([17]; 250 g ai/ha): 90
- Plant response rating, Sedge, Umbrella ([18]; 250 g ai/ha): 0

Compound: O=C1NCC(c2ccc(Oc3ccccc3)cc2)C1C(=O)Nc1cccc(F)c1F (racemic) [Compound 536]
- Plant response rating, Ragweed [1, 19]: 0
- Ragweed plant response rating (0 to 100 scale, 0 is no effect, 100 is complete control) ([1]; Preemergence, 500 g ai/ha): 0
- Plant response rating, Pigweed [2, 19]: 0
- Pigweed plant response rating (0 to 100 scale, 0 is no effect, 100 is complete control) ([2]; Preemergence, 500 g ai/ha): 0
- Plant response rating, Barnyardgrass [3, 19]: 0
- Barnyardgrass plant response rating (0 to 100 scale, 0 is no effect, 100 is complete control) ([3]; Preemergence, 500 g ai/ha): 0
- Plant response rating, Foxtail, Giant [4, 19]: 0
- Foxtail, Giant plant response rating (0 to 100 scale, 0 is no effect, 100 is complete control) ([4]; Preemergence, 500 g ai/ha): 20
- Plant response rating, Ryegrass, Italian [5, 19]: 0
- Ryegrass, Italian plant response rating (0 to 100 scale, 0 is no effect, 100 is complete control) ([5]; Preemergence, 500 g ai/ha): 0
- Plant response rating, Kochia (Kochia (Kochia scoparia) [6]; [19]): 0
- Kochia plant response rating (0 to 100 scale, 0 is no effect, 100 is complete control) (Kochia (Kochia scoparia) [6]; Preemergence, 500 g ai/ha): 0
- Plant response rating, Galium [7, 21]: 0
- Plant response rating, Galium [7, 23]: 0
- Plant response rating, Wheat [8, 21]: 0
- Plant response rating, Wheat [8, 23]: 0
- Plant response rating, Ragweed [9, 21]: 0
- Plant response rating, Ragweed [9, 23]: 0
- Plant response rating, Corn (corn (Zea mays); [21]): 0
- Plant response rating, Corn (corn (Zea mays); [23]): 0
- Plant response rating, Pigweed [10, 21]: 0
- Plant response rating, Pigweed [10, 23]: 0
- Blackgrass plant response rating [11, 24]: 0
- Plant response rating, Blackgrass [11, 23]: 0
- Barnyardgrass plant response rating [12, 24]: 0
- Plant response rating, Barnyardgrass [12, 23]: 0
- Plant response rating, Foxtail, Giant [13, 21]: 0
- Plant response rating, Foxtail, Giant [13, 23]: 30
- Plant response rating, Ryegrass, Italian [14, 21]: 0
- Plant response rating, Ryegrass, Italian [14, 23]: 0
- Plant response rating, Kochia (Kochia (Kochia scoparia) [15]; [21]): 0
- Plant response rating, Kochia (Kochia (Kochia scoparia) [15]; [23]): 0
- Plant response rating, Barnyardgrass ([16]; 500 g ai/ha): 30
- Plant response rating, Rice (rice (Oryra sativa); 500 g ai/ha): 15
- Plant response rating, Ducksalad ([17]; 500 g ai/ha): 0
- Plant response rating, Sedge, Umbrella ([18]; 500 g ai/ha): 0

Compound: O=C(Nc1cccc(F)c1F)C1C(=O)N(CC=CCl)CC1c1cccc(C(F)(F)F)c1 (stereo not drawn) [Compound 485]
- Plant response rating, Ragweed [1, 19]: 0
- Ragweed plant response rating (0 to 100 scale, 0 is no effect, 100 is complete control) ([1]; Preemergence, 500 g ai/ha): 0
- Plant response rating, Pigweed [2, 19]: 0
- Pigweed plant response rating (0 to 100 scale, 0 is no effect, 100 is complete control) ([2]; Preemergence, 500 g ai/ha): 0
- Plant response rating, Barnyardgrass [3, 19]: 30
- Barnyardgrass plant response rating (0 to 100 scale, 0 is no effect, 100 is complete control) ([3]; Preemergence, 500 g ai/ha): 80
- Plant response rating, Foxtail, Giant [4, 19]: 70
- Foxtail, Giant plant response rating (0 to 100 scale, 0 is no effect, 100 is complete control) ([4]; Preemergence, 500 g ai/ha): 90
- Plant response rating, Ryegrass, Italian [5, 19]: 0
- Ryegrass, Italian plant response rating (0 to 100 scale, 0 is no effect, 100 is complete control) ([5]; Preemergence, 500 g ai/ha): 0
- Plant response rating, Kochia (Kochia (Kochia scoparia) [6]; [19]): 0
- Kochia plant response rating (0 to 100 scale, 0 is no effect, 100 is complete control) (Kochia (Kochia scoparia) [6]; Preemergence, 500 g ai/ha): 0
- Galium plant response rating [7, 25]: 0
- Plant response rating, Galium [7, 23]: 30
- Wheat plant response rating [8, 25]: 0
- Plant response rating, Wheat [8, 23]: 20
- Ragweed plant response rating [9, 25]: 0
- Plant response rating, Ragweed [9, 23]: 0
- Corn plant response rating (corn (Zea mays); [25]): 0
- Plant response rating, Corn (corn (Zea mays); [23]): 20
- Pigweed plant response rating [10, 25]: 0
- Plant response rating, Pigweed [10, 23]: 40
- Blackgrass plant response rating [11, 24]: 0
- Plant response rating, Blackgrass [11, 23]: 0
- Barnyardgrass plant response rating [12, 24]: 20
- Plant response rating, Barnyardgrass [12, 23]: 50
- Foxtail, Giant plant response rating [13, 25]: 20
- Plant response rating, Foxtail, Giant [13, 23]: 70
- Ryegrass, Italian plant response rating [14, 25]: 0
- Plant response rating, Ryegrass, Italian [14, 23]: 0
- Kochia plant response rating (Kochia (Kochia scoparia) [15]; [25]): 0
- Plant response rating, Kochia (Kochia (Kochia scoparia) [15]; [23]): 30
- Plant response rating, Barnyardgrass ([16]; 250 g ai/ha): 0
- Plant response rating, Rice (rice (Oryra sativa); 250 g ai/ha): 0
- Plant response rating, Ducksalad ([17]; 250 g ai/ha): 40
- Plant response rating, Sedge, Umbrella ([18]; 250 g ai/ha): 0
